pIC50, pKi: −log10 of the molar value.
How the values were obtained:
[1] = system: U-937 AML cells (G60R oncogenic mutation in SHP2); assay: Cell viability (CellTiter-Glo), U-937; type: cell-based; conditions: Homo sapiens, U-937, 72 h, 3 days, 0.123 to 30 μM
Description: Oncogenic gain-of-function mutations in SHP2 drive leukemogenesis in a significant number of leukemia patients. However, because of their unique mechanism of action, the existing SHP2 allosteric inhibitors lack activity against the most common SHP2 oncogenic variants. Thus, we tested whether our inhibitors could inhibit the growth of leukemia cells expressing oncogenic SHP2 variants. […] Thus, we tested both SBI-4668 and RMC-4550 on U-937 AML cells, which harbor a G60R oncogenic mutation in SHP2. We treated cells with either SBI-4668 or RMC-4550 at various concentrations, ranging from 0.123 to 30 μM (Fig. 5A). […] We also assessed the effects of SBI-4668 and RMC-4550 on ERK1/2 activation in the SHP2 mutant U-937 cell line. […]
Viability of AML and esophageal carcinoma cells was assessed using the ATP-depletion assay CellTiter-Glo (Promega). Cells were harvested at 1 × 10^6/ml to 2 × 10^6 cells/ml with cell numbers determined by trypan blue using the Countess Cell counter (Thermo Scientific) and resuspended in culture media. […] Luminescence was read on a Tecan Spark Multimode Microplate Reader, and data were analyzed using GraphPad Prism software.

SHP2-E76K = molecular target: T1, SHP2-E76K (Homo sapiens, UniProt Q06124, E76K); assay: Michaelis–Menten kinetics and mode of inhibition; type: biochemical
T1 construct: Recombinant human full-length SHP2 (1–594) WT and E76K mutants; made in house
T1 sequence (Q06124 1-593 E76K): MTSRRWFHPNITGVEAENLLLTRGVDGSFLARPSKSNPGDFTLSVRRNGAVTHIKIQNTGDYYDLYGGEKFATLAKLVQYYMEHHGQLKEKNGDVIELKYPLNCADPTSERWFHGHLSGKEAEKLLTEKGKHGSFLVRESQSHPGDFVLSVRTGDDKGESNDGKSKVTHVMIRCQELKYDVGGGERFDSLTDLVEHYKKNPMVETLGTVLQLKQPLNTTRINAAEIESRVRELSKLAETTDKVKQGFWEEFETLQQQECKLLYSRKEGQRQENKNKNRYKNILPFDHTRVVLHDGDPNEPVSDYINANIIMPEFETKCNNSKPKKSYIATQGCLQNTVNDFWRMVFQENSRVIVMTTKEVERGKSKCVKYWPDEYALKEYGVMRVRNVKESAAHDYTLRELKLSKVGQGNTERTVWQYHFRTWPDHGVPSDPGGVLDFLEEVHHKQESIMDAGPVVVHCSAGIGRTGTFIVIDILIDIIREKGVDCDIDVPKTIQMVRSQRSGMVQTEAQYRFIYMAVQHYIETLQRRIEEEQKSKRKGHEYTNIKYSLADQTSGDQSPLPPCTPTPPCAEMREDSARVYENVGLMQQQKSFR
Description: We previously reported furanylsalicylic acids as potent and selective inhibitors of the Yersinia tyrosine phosphatase YopH ([37], [38]). […] Thus, we tested whether replacement of the neutral 2-hydroxybenzamide moiety with the negatively charged salicylate would be beneficial for the potency of this scaffold against SHP2. […] To corroborate this postulate, we subjected SBI-4668 to Michaelis–Menten kinetic studies with SHP2-E76K to determine its mode of inhibition (Fig. 3, A and B). Using nonlinear regression, initial rates at various inhibitor and substrate concentrations were fitted to the Michaelis–Menten equations for competitive, noncompetitive, uncompetitive, and mixed inhibitions. Fitting models were then compared using Akaike's Information Criterion (AIC), and inhibition mode probabilities were calculated from the differences between the corresponding second-order corrected AIC scores as previously described ([38], [39]).
SBI-4668 was tested with SHP2-E76K using a similar assay format as described previously. SBI-4668 or vehicle (DMSO) was spotted in triplicate into a black Greiner FLUOTRAC 200 384-well microplate (catalog no.: #781076; Greiner) using an Echo 555 Liquid Handler (Labcyte, Inc). […] Fluorescence intensity was measured in kinetic mode as described previously. The initial rates were determined from the linear progression curves of each SHP2-E76K reaction. […]

Structure (SMILES): O=C(Nc1ccccc1)c1cc(-c2ccc(/C=C3\Sc4ccccc4C3=O)o2)ccc1O [SBI-4668, (Z)-2-Hydroxy-5-(5-((3-oxobenzo[b]thiophen-2(3H)-ylidene)methyl)furan-2-yl)-N-phenylbenzamide]
- pIC50 [1]: 5.20
- mode of inhibition (SHP2-E76K; AIC model comparison): either a noncompetitive or a mixed inhibition mechanism
- pKi (SHP2-E76K; DiFMUP, read-out: inhibition constant (Ki) for noncompetitive inhibition): 5.74
